Measurements from publication PMC12057046, “Elucidation of short linear motif-based interactions of the MIT and rhodanese domains of the ubiquitin-specific protease 8” (Biology Direct, 2025).

Tested on: USP8 MIT domain
Assay: Peptide-phage display-based deep mutational scanning (DMS), USP8 MIT domain
Assay type: binding, human
Conditions: bait USP8_MIT__P40818_1_142; EFCAB12 (Q6NXP0) 2-17; pair of mutant with wild-type wt_00016 (MDDDYEAYHSLFLSLL); sheet S3.B_ProP-PD_pairs
Procedure: The residues of these 16 amino acid-long wild-type peptides were substituted to all natural amino acid residues, except cysteine, in all positions (Supplementary Table S2A). The designed peptide sequences were reverse-translated to oligonucleotides optimized to the codon usage of E. coli. The required flanking regions (5´[…] and 3´[…]) were added for library construction. The library was generated as previously described.
Four rounds of phage selections were carried out using the second generation human disorderome library or the constructed deep mutational scanning library. At least three individual replicates were used for each bait protein. 10 µg of GST-tagged proteins or GST control (diluted in PBS from the stock of proteins kept in the purification elution buffer) were immobilized in 100 µL PBS on a 96-well MaxiSorp (Nunc) plate overnight at 4 °C. The plates were incubated with blocking buffer (with 0.5% BSA in PBS) for 1 h at 4 °C followed by washing with 0.05% Tween 20 in PBS four times. The naïve phage library (10^11 CFU) was diluted in 1/5th volume PEG/NaCl (20% PEG-8000, 0.4 M NaCl) and 1X PBS, incubated on ice for 10 min and centrifuged at 10,000 [drawing 3] g for 10 min. The pellet was resuspended in the volume of PBS (100 µL/ well). The GST-coated control plate was incubated with 100 µL library per well in PBS for 1 h at 4 °C to remove non-specific binders. The supernatant was transferred to the target wells and incubated for 2 h at 4 °C. The wells were washed five times with 0.05% Tween 20 in PBS and the bound phages were eluted with 100 µL per well log-phase E. coli OmniMAX by incubating at 37° C while shaking. After 30 min, M13KO7 helper phages were added and incubated for an additional 45 min. The bacterial cultures were transferred to 1 mL 2YT supplemented with 100 µg/mL carbenicillin, 30 µg/mL kanamycin and 0.3 mM IPTG and grew overnight at 37 °C while shaking. The following day the cultures were centrifuged for 10 min at 2,000 [drawing 4] g, 4 °C. 1/10th volume of 10 [drawing 5] PBS was added to adjust the pH and heated at 65 °C for 10 min. The phage pools from each round were used as in-phages for the next round of selections.
The samples were prepared for NGS as previously described. Peptide-coding regions of the enriched phage pools were amplified and barcoded using Phusion High-Fidelity PCR Master Mix (Thermo Fisher) for 22 cycles and confirmed by 2% agarose gel electrophoresis. The PCR products were normalized with 25 µL Mag-bind Total Pure NGS beads (Omega Biotek) and 10 µL of each eluted sample (Qiagen Elution Buffer) was pooled and cleaned-up with a PCR purification kit (Qiagen). The PCR product was confirmed by 2% agarose electrophoresis and the band was extracted with QIAquick Gel extraction Kit (Qiagen) and eluted with 30 µL TE buffer. The dsDNA was quantified using QuantiT PicoGreen dsDNA Assay Kit (Thermo Fisher) and sent for NGS (Illumina MiSeq v3, 1 × 150 bp read setup, 20% PhiX, NGI SciLifeLab facility, Sweden). The NGS data were demultiplexed, adapter regions were trimmed and sequences with an average quality of at least 20 were translated to peptide sequences. The NGS data were analysed using custom Python scripts. The total read NGS counts for each selection experiment of each peptide sequence were compiled and annotated in PepTools (https://slim.icr.ac.uk/tools/peptools/). Since ProP-PD is in essence a competition assay, the possibility of the input phage library influencing the selection outcome was explored. For this, the Pearson correlation coefficient, p-value and coefficient of determination were calculated for all peptide NGS count fractions in the library coverage vs. in the selections results (Supplementary Fig. S7; Supplementary Table S2B; Supplementary Table S3B; Supplementary Table S7B). Pearson correlation coefficient and p-value were calculated using Python’s SciPy library. […]

Sequence	hit_pair_ratio
MDDDYIAYHSLFLSLL [mut_04416]	56.54
MDDDYLAYHSLFLSLL [mut_04418]	84.82
MDDDYMAYHSLFLSLL [mut_04419]	112.64
MDDDYNAYHSLFLSLL [mut_04420]	2.54
MDDDYPAYHSLFLSLL [mut_04421]	1.34
MDDDYQAYHSLFLSLL [mut_04422]	12.11
MDDDYSAYHSLFLSLL [mut_04424]	84.48
MDDDYTAYHSLFLSLL [mut_04425]	48.27
MDDDYVAYHSLFLSLL [mut_04426]	112.64
MDDDYWAYHSLFLSLL [mut_04427]	2.20
MDDDYYAYHSLFLSLL [mut_04428]	1.20
MDDEYEAYHSLFLSLL [mut_04376]	3.28
MDDFYEAYHSLFLSLL [mut_04377]	337.92
MDDGYEAYHSLFLSLL [mut_04378]	3.46
MDDHYEAYHSLFLSLL [mut_04379]	28.27
MDDKYEAYHSLFLSLL [mut_04381]	84.82
MDDLYEAYHSLFLSLL [mut_04382]	337.92
MDDNYEAYHSLFLSLL [mut_04384]	33.79
MDDPYEAYHSLFLSLL [mut_04385]	4.13
MDDQYEAYHSLFLSLL [mut_04386]	42.28

Sequence	hit_pair_ratio
MDDRYEAYHSLFLSLL [mut_04387]	84.48
MDDSYEAYHSLFLSLL [mut_04388]	4.76
MDDTYEAYHSLFLSLL [mut_04389]	15.92
MDDWYEAYHSLFLSLL [mut_04391]	51.65
MDDYYEAYHSLFLSLL [mut_04392]	56.39
MDEDYEAYHSLFLSLL [mut_04358]	3.08
MDFDYEAYHSLFLSLL [mut_04359]	112.94
MDGDYEAYHSLFLSLL [mut_04360]	5.59
MDHDYEAYHSLFLSLL [mut_04361]	6.06
MDIDYEAYHSLFLSLL [mut_04362]	337.92
MDLDYEAYHSLFLSLL [mut_04364]	2.51
MDMDYEAYHSLFLSLL [mut_04365]	84.82
MDNDYEAYHSLFLSLL [mut_04366]	19.88
MDPDYEAYHSLFLSLL [mut_04367]	337.92
MDQDYEAYHSLFLSLL [mut_04368]	8.05
MDSDYEAYHSLFLSLL [mut_04370]	42.24
MDTDYEAYHSLFLSLL [mut_04371]	112.94
MDVDYEAYHSLFLSLL [mut_04372]	7.68
MDWDYEAYHSLFLSLL [mut_04373]	2.57
MDYDYEAYHSLFLSLL [mut_04374]	42.41

Sequence	hit_pair_ratio
MEDDYEAYHSLFLSLL [mut_04340]	16.11
MFDDYEAYHSLFLSLL [mut_04341]	4.97
MGDDYEAYHSLFLSLL [mut_04342]	337.92
MHDDYEAYHSLFLSLL [mut_04343]	337.92
MIDDYEAYHSLFLSLL [mut_04344]	337.92
MKDDYEAYHSLFLSLL [mut_04345]	25.99
MLDDYEAYHSLFLSLL [mut_04346]	33.93
MMDDYEAYHSLFLSLL [mut_04347]	37.58
MNDDYEAYHSLFLSLL [mut_04348]	14.75
MPDDYEAYHSLFLSLL [mut_04349]	168.96
MQDDYEAYHSLFLSLL [mut_04350]	169.63
MRDDYEAYHSLFLSLL [mut_04351]	4.58
MSDDYEAYHSLFLSLL [mut_04352]	67.69
MVDDYEAYHSLFLSLL [mut_04354]	6.06
MYDDYEAYHSLFLSLL [mut_04356]	67.58
NDDDYEAYHSLFLSLL [mut_04330]	17.85
PDDDYEAYHSLFLSLL [mut_04331]	10.25
QDDDYEAYHSLFLSLL [mut_04332]	3.38
SDDDYEAYHSLFLSLL [mut_04334]	56.39

Same assay, conditions: bait USP8_MIT__P40818_1_142; MLPH 482-497; ratio of averaged fractions of wild-type/mutant peptide pair, larger over smaller (direction to be read from the two fractions)

Sequence	hit_pair_ratio
SEVADIESRIAALRAA	7.79
SEVEDIESRIAALRAA	7.79
SEVFDIESRIAALRAA	1.56
SEVGDIESRIAALRAA	2.28
SEVHDIESRIAALRAA	28.09
SEVIDIESRIAALRAA	6.39
SEVKDIESRIAALRAA	8.70
SEVLDIESRIAALRAA	9.47
SEVMDIESRIAALRAA	4.36
SEVNDIESRIAALRAA	7.79
SEVQDIESRIAALRAA	3.89
SEVRDIESRIAALRAA	4.05
SEVSDDESRIAALRAA	7.79
SEVSDFESRIAALRAA	49.08
SEVSDHESRIAALRAA	1.54
SEVSDIEDRIAALRAA	4.82
SEVSDIEERIAALRAA	7.79
SEVSDIEGRIAALRAA	2.60

Sequence	hit_pair_ratio
SEVSDIEHRIAALRAA	4.62
SEVSDIELRIAALRAA	4.11
SEVSDIEMRIAALRAA	7.10
SEVSDIENRIAALRAA	1.11
SEVSDIEPRIAALRAA	7.79
SEVSDIEQRIAALRAA	1.11
SEVSDIERRIAALRAA	1.35
SEVSDIESREAALRAA	3.89
SEVSDIESRFAALRAA	9.56
SEVSDIESRIAAARAA	3.89
SEVSDIESRIAALHAA	1.15
SEVSDIESRIAALIAA	3.61
SEVSDIESRIAALLAA	9.42
SEVSDIESRIAALRAF	7.79
SEVSDIESRIAALRAI	17.25
SEVSDIESRIAALRAL	1.15
SEVSDIESRIAALRAM	108.17
SEVSDIESRIAALRAV	1.51

Same assay, conditions: sheet S3.B_ProP-PD_pairs; bait USP8_MIT__P40818_1_142; ratio within the wild-type/mutant pair, larger over smaller averaged fraction (direction from fraction_wt and fraction_mut)

Sequence	hit_pair_ratio
MEVSDIESRIAALRAA	2.60
NEVSDIESRIAALRAA	11.09
PEVSDIESRIAALRAA	7.79
QEVSDIESRIAALRAA	2.44
SDVSDIESRIAALRAA	11.31
SEASDIESRIAALRAA	1.11
SEESDIESRIAALRAA	7.79
SEFSDIESRIAALRAA	1.28
SEGSDIESRIAALRAA	7.79
SEISDIESRIAALRAA	2.51
SELSDIESRIAALRAA	11.85
SEPSDIESRIAALRAA	2.03
SEQSDIESRIAALRAA	5.24
SESSDIESRIAALRAA	3.89
SETSDIESRIAALRAA	1.00
